“Also recorded” adds a separate entry of the source.
What was measured:
Smad1/5/8 [1] = assay: Immunoblot of p- and pan-Smad1/5/8 in HFF; type: cell-based, human; conditions: BMP2 (100ng/mL), 24h
Method: (§1) Cell culture: HeLa and C2C12 were cultured in DMEM containing 10% FCS and 1 % PS. HFF was cultured in DMEM containing 15% FCS and 1 %PS. NIH 3T3 was cultured in DMEM containing 10% NCS and 1% PS. The cells were maintained unter 5% CO2 at 37°C in a humidified atmosphere. After 24h preincuabtion in serum-free medium, the cells were treated with various compounds and proteins as indicated in context. Transfection of siRNA oligonuleotide against Smurf1 was reported by Zhu et al (Zhu et al., nature 2006) and synthesized by riboxx and performed using riboxx®FECT reagent according to the manufacturer's instructions. 24h after transfection, the cells were treated with BMP (100ng/mL) and Compound as indicated before lysis.
(§2) Western blot:: Cell extracts were homogenized in Urea-Lysis buffer (1mM EDTA,0.5% Triton X-100), 5mM NaF, 6M Urea, 1mM Na3VO4, 10µg/mL Pepstatin, 100µM PMSF and 3µg/mL Aprotinin in PBS). Enhanced chemiluminescence (ECL) Western blot analysis was performed. 20-40µg of total protein was resolved on 10% SDS-PAGE gels and immunoblotted with specific antibodies. Primary antibodies were incubated at a 1:1,000 dilution in TBS (pH 7.5) with 0.1% Tween-20 and 5% BSA/nonfat milk with gentle agitation overnight at 4°C. The proper secondary antibodies were incubated in TBS (pH 7.5) with 5% BSA/nonfat milk and 0.1 % Tween-20 at a 1:5,000 dilution for 1 h at room temperature. […]

Smad1/5/8 [2] = assay: Immunoblot of p- and pan-Smad1/5/8 in C2C12; type: cell-based, mouse; conditions: C2C12, BMP2 (100ng/mL), 24h, E738 0,5µM, 1µM and 5µM
Method: as §1, §2

Smad1/5/8 [3] = assay: Immunoblot of p- and pan-Smad1/5/8 in NIH 3T3; type: cell-based, mouse; conditions: NIH3T3, BMP2 (100ng/mL), 24h
Method: as §1, §2

[4] = tested on: BMP- and TGFß-relative R-Smads; assay: Immunoblot of BMP- and TGFß-relative R-Smads in HeLa cells (TGFß or FCS stimulation); type: cell-based, human
[5] = tested on: BMP/TGFß downstream genes (ID1, ID2, CTGF, SnoN); assay: qRT-PCR of BMP/TGFß downstream genes in HeLa cells; type: cell-based, human; conditions: E738 (1µM)
Method: (§3) RT-PCR: Total RNA was isolated with RNA isolation kit from Qiagen according to the manufacturer's instructions. cDNA was generated by reverse-transcription of equivalent quantities of RNA and Quantitative real-time PCR (QRT-PCR) was performed as described previously.
To evaluate the effect of indirubin on transcriptional activity, we focused on the BMP/Smad pathway and performed RT-PCR to measure the BMP/TGFß downstream genes expression regulated by E738 (Fig. 2E). […] As for ID2 only 50% was remained to be expressed. CTGF, a BMP antagonist and TGFß agonist (Abreu 2002 nature cell biology 4 599-607) and SnoN, a TGFß downstream gene were declined up to approximate 30% and 10% respectively.

ß-Catenin = assay: Immunoblot of non-phosphorylation-ß-Catenin in HeLa cells; type: cell-based, human; conditions: 1 h, BMP2 (100ng/mL), already from 0.1µM
Method: Western blot:: Cell extracts were homogenized in Urea-Lysis buffer (1mM EDTA,0.5% Triton X-100), 5mM NaF, 6M Urea, 1mM Na3VO4, 10µg/mL Pepstatin, 100µM PMSF and 3µg/mL Aprotinin in PBS). Enhanced chemiluminescence (ECL) Western blot analysis was performed. 20-40µg of total protein was resolved on 10% SDS-PAGE gels and immunoblotted with specific antibodies. Primary antibodies were incubated at a 1:1,000 dilution in TBS (pH 7.5) with 0.1% Tween-20 and 5% BSA/nonfat milk with gentle agitation overnight at 4°C. The proper secondary antibodies were incubated in TBS (pH 7.5) with 5% BSA/nonfat milk and 0.1 % Tween-20 at a 1:5,000 dilution for 1 h at room temperature.
To assess the effect of E738 on Wnt and Stat3 pathway in mammalian cellular context, HeLa cells were treated with E738 at increasing concentrations for 1 h. Here E804 was used as reference because of its well-known inhibition of Stat3 and Wnt. The antibodies of p-Stat3 and non-phosphorylation-ß-Catenin (NP-ß-Catenin, Ser33/37/Thr41), which can provide a convenient positive band if GSK3B is inhibited, were recruited to substantiated our in vitro results. […] With the stimulation of FCS, we also observed the similar regulation on Stat3 and MAPKs pathways depicted in Fig. 8.

[6] = tested on: Smad1, Smad2, Smad4, Smurf1 and Smurf2; assay: qRT-PCR of Smad and Smurf expression in HeLa cells; type: cell-based, human; conditions: BMP2 plus E738, 24h
Method: as §3
We considered the possibility of E738 to block Smads RNA synthesis. […] The expressions of Smad-relative E3 ligases, Smurf1 and Smurf2, were inhibited more effectively and only 50% Smurf1 and 30% Smurf2 was remained to expressed. The results provided the regulation of indirubin in RNA level of R-Smads. […] We thus concluded occurrence of degradation direct in protein level rather than in RNA level.

Hek293T cells = assay: (iPS)-Colony formation and EMT in Hek293T; type: cell-based, human
Method: Cell culture: HeLa and Hek293T were cultured in DMEM (PAA) containing 10% FCS (PAA) and 1% PS (PAA). HFF (human foreskin fibroblasts) were cultured in DMEM containing 15% FCS and 1%PS. Mouse embryonic fibroblasts were cultured in DMEM containing 10% NCS (LifeTechnologies) and 1% PS. The cells were maintained under 5% CO2 at 37°C in a humidified atmosphere. The cells were treated with various compounds as indicated in context. The images were taken at indicated time points using a Keyence digital-microskop BZ-800.
(iPS)-Colony formation and spontaneous differentiation in HEK: 10^5 cells/well Hek 293T were seeded in a 12-well plate in 10% FCS with 1mL/well). Next day, the cells were treated with E738 (8µM). […] Afterwards, the cells were incubated further in the presence of 10% FCS and the medium was refreshed every 3 days. The spontaneous differentiation occurred after 10 days incubation.

COc1ccc2c(c1)C(=C1Nc3ccccc3C1=NOCC(O)CO)C(=O)N2 (stereo not shown) [E738]
concentration sufficient to reduce Smad1/5/8 (Smad1/5/8 [1]): 0.5 µM
p- and pan-Smad1/5/8 (Smad1/5/8 [1]; E738 0,5µM, 1µM and 5µM): decline of both
p- and pan-Smad1/5/8 (Smad1/5/8 [2]): decline of both
concentration sufficient to reduce Smad1/5/8 (Smad1/5/8 [3]): 0.5 µM
p- and pan-Smad1/5/8 (Smad1/5/8 [3]; E738 0,5µM, 1µM and 5µM): decline of both
BMP- and TGFß-relative R-Smads ([4]; BMP2 (100ng/mL) or TGFß (20ng/mL), 4h treatment): influenced on both BMP- and TGFß-relative R-Smads in concentration dependent manner
P- and pan-Smads (R-Smads) ([4]; TGFß (20ng/mL), 24h, E738 (1µM), Bio (5µM), DM (1µM), Repsox (10µM)): abolishment of both BMP- and TGFß-relative R-Smads
ID2 expression ([5]; BMP2 (100ng/mL), 1 h after incubation): firstly silenced
ID2 expression ([5]; BMP2 (100ng/mL), 6h treatment): doubled again
ID1 expression ([5]; BMP2 (100ng/mL), time course): constantly reduced
CTGF expression, declined up to ([5]; BMP, 24h): ~30%
ID2 remained to be expressed ([5]; BMP, 24h): 50%
SnoN expression, declined up to ([5]; BMP, 24h): ~10%
expression of ID1 ([5]; BMP, 24h): significantly repressed
non-phosphorylation-ß-Catenin (NP-ß-Catenin, Ser33/37/Thr41) (ß-Catenin): highly stabilized ß-Catenin
Smad1 expression, repressed up to [6]: up to 60%
Smad2 expression, repressed up to [6]: ≤ 30%
Smurf1 remained to expressed [6]: 50%
Smurf2 remained to expressed [6]: 30%
cell mobility (EMT) and cell dedifferentiation (Hek293T cells; Hek293T, 4 days treatment): enhances cell mobility (EMT) and induces cell dedifferentiation
iPS-like (embryonic stem cell-like) colony formation (Hek293T cells; Hek 293T, E738 (8µM) 24h, floating cells washed and replated in 10% FCS for 3 days): embryonic stem cell-like colony appeared after 3 days; also recorded: iPS-like colonies were observed
EMT (Hek293T cells; Hek 293T, E738 (8µM), 24h, 10% FCS): a clear EMT could be observed

Reference: patent EP2518139A1, “Use of indirubin derivatives for producing pluripotent stem cells” (Universitätsklinikum Jena, priority 2011, dated 2012)
